Source: US20060100255A1, “Substituted indolealkanoic acids derivative and formulations containing same for use in the treatment of diabetic complications” (priority 2002, published 2006)

What was measured:
NCV = test: comparison with zenarestat and zopolrestat, inhibition of decline in NCV; type: in vivo
Excerpt: 3-[(4,5,7-trifluoro-1,3-benzothiazol-2-yl)methyl]-1H-indol-1-yl}acetic acid monohydrate compares very favorably with the ability of zenarestat and zopolrestat to inhibit the decline in NCV. […]

[1] = system: nerve conduction velocity (NCV) in the sciatic nerve; test: 3 month study in STZ-diabetic rats, nerve conduction velocity; type: in vivo, rat; details: 3 months treatment
[2] = system: nerve conduction velocity (NCV) in the sciatic nerve; test: 4-week study in STZ-diabetic rats, loss of nerve conduction velocity; type: in vivo, rat
[3] = system: sorbitol levels in the sciatic nerve and lens; test: 8-day STZ diabetic rat model, sorbitol lowering versus known ARIs; type: in vivo; details: 10 mg/kg/day
Excerpt: 3-[(4,5,7-trifluoro-1,3-benzothiazol-2-yl)methyl]-1H-indol-1-yl}acetic acid monohydrate is compared to the known […] inhibitors (ARI) zenarestat and zopolrestat in an 8-day STZ diabetic rat model.

Tissue Sorbitol Levels = test: tissue sorbitol levels in the STZ induced diabetic rat, 30 and 90 day studies; type: in vivo
Excerpt: (§1) The test methods employed to determine the efficacy are essentially those of Mylari, et al., J. Med. Chem. 34: 108, 1991.
[(4,5,7-trifluoro-1,3-benzothiazol-2-yl)methyl]-1H-indol-1-yl}acetic acid monohydrate in reducing Tissue Sorbitol Levels in the STZ Induced Diabetic Rat

[4] = system: sorbitol accumulation in the sciatic nerve; test: sorbitol accumulation in sciatic nerve of streptozotocin-induced diabetic rats, 15 day study; type: in vivo, rat
Excerpt: as §1

## O=C(O)Cn1cc(Cc2nc3c(F)c(F)cc(F)c3s2)c2ccccc21 [Example 1, 3-(4,5,7-Trifluorobenzothiazol-2-yl)methyl-indole-N-acetic Acid, monohydrate]
NCV; 25 mg/kg/day, study 4 weeks, treatment 3 weeks
  Improvement in NCV: 79%
[1]; 5 mg/kg/day
  Improvement in NCV: 50%
[1]; 10 mg/kg/day
  Improvement in NCV: 68%
[1]; 25 mg/kg/day
  Improvement in NCV: 105%
[2]; 5 mg/kg/day
  inhibition of decline of nerve conduction velocity (NCV) in the sciatic nerve: 14%
[2]; 10 mg/kg/day
  inhibition of decline of nerve conduction velocity (NCV) in the sciatic nerve: 41%
[2]; 25 mg/kg/day
  inhibition of decline of nerve conduction velocity (NCV) in the sciatic nerve: 79%
[3]
  Lens sorbitol lowering: 25-42%
  Sciatic Nerve sorbitol lowering: 100%
Tissue Sorbitol Levels; 30 days, 5 mg/kg/day
  % Sorbitol Reduction, Lens: 88%
  % Sorbitol Reduction, Sciatic Nerve: 100%
Tissue Sorbitol Levels; 30 days, 10 mg/kg/day
  % Sorbitol Reduction, Lens: 90%
  % Sorbitol Reduction, Sciatic Nerve: 100%
Tissue Sorbitol Levels; 30 days, 25 mg/kg/day
  % Sorbitol Reduction, Lens: 95%
  % Sorbitol Reduction, Sciatic Nerve: 100%
Tissue Sorbitol Levels; 90 days, 5 mg/kg/day
  % Sorbitol Reduction, Kidney Cortex: 33%
  % Sorbitol Reduction, Kidney Medulla: 36%
  % Sorbitol Reduction, Retina: 89%
  % Sorbitol Reduction, Sciatic Nerve: 100%
Tissue Sorbitol Levels; 90 days, 10 mg/kg/day
  % Sorbitol Reduction, Kidney Cortex: 25%
  % Sorbitol Reduction, Kidney Medulla: 47%
  % Sorbitol Reduction, Retina: 99%
  % Sorbitol Reduction, Sciatic Nerve: 100%
Tissue Sorbitol Levels; 90 days, 25 mg/kg/day
  % Sorbitol Reduction, Kidney Cortex: 45%
  % Sorbitol Reduction, Kidney Medulla: 58%
  % Sorbitol Reduction, Retina: 96%
  % Sorbitol Reduction, Sciatic Nerve: 100%
[4]; 15 day study
  ED50, sorbitol accumulation in rat sciatic nerve: 1.3 mg/kg/day
[4]; 15 day study, 4.8 mg/kg/day
  inhibition of sorbitol accumulation, rat sciatic nerve: 100%
[4]; STZ diabetic rat tissues
  changes in fructose: levels were reduced
  changes in mysinositol: levels were increased

## O=C(O)Cn1c(=O)n(Cc2ccc(Br)cc2F)c(=O)c2ccc(Cl)cc21 [zenarestat]
NCV; 32 mg/kg/day, study 2 weeks, treatment 2 weeks
  Improvement in NCV: 48%
[3]
  Lens sorbitol lowering: 0%
  Sciatic Nerve sorbitol lowering: 52%

## O=C(O)Cc1nn(Cc2nc3cc(C(F)(F)F)ccc3s2)c(=O)c2ccccc12 [zopolrestat]
NCV; 25 mg/kg/day, study 4 weeks, treatment 4 weeks
  Improvement in NCV: 43%
[3]
  Lens sorbitol lowering: 0%
  Sciatic Nerve sorbitol lowering: 71%
